Experimental data as given in US9365619B2, “IgG-binding peptide and method for detecting and purifying IgG using same” (Otsuka Chemical Co., Ltd., priority 2011, dated 2016).
Like-named read-outs stand apart in the source and are kept apart here. Bridge positions count the residues as written; N and C are the ends. Peptide text beside a SMILES is read from it.

Biological target: human IgG
Test: Surface plasmon resonance (SPR) analysis of synthetic peptide binding to human IgG
Conditions: for affinity compared with the parent peptide, in words: compared with GFc-C35-3/15 (T7H, N8R); for affinity compared with the original peptide, in words: compared with GFc-C35-3/15
Description: In order to narrow down the amino acid region to be studied, a peptide in which one amino acid was deleted from each end of GFc-C35 (GFc-C35-2/16) and a peptide in which two amino acids were deleted from each end of CFc-C35 (GFc-C35-3/15) were synthesized. Among these peptides, based on the GFc-C35-3/15 synthetic peptide, the effect of the introduction of amino acid mutations on affinity was evaluated. That is, the contribution of each amino acid substitution to affinity was evaluated by synthesizing peptides substituted with frequently or occasionally observed amino acids obtained from the phage libraries and subjecting the resulting synthetic peptides to binding analysis.
Based on the synthetic peptide C35A, peptides substituted with amino acids observed at high frequency in the aforementioned phage libraries were synthesized by introducing amino acid mutations, and in a similar manner to the above, their binding to human IgG was analyzed by surface plasmon resonance (SPR) analysis to evaluate the contribution of each amino acid substitution to affinity.

[1] = SPR, synthetic peptide binding to human IgG, read-out: Kd

Structure (SMILES) | Kd [1] | affinity compared with the parent peptide, in words | affinity compared with the original peptide, in words | Kd (SPR sensorgram analysis, human IgG, read-out: affinity (Kd value))
CC(C)C[C@@H]1NC(=O)[C@H](CC(N)=O)NC(=O)CNC(=O)[C@H](CCCNC(=N)N)NC(=O)[C@H](Cc2c[nH]cn2)NC(=O)[C@H](Cc2ccc(O)cc2)NC(=O)[C@H](C)NC(=O)[C@@H](NC(=O)[C@@H](N)CC(=O)O)CSSC[C@@H](C(=O)N[C@H](C(N)=O)[C@@H](C)O)NC(=O)[C@H](Cc2c[nH]c3ccccc23)NC(=O)[C@H](C(C)C)NC1=O [GFc-C35-3/15 (T7H, N8R, T5A), DCAYHRGNLVWCT] (H-DCAYHRGNLVWCT-NH2; disulfide 2-12) | 0.25 µM | affinity-enhancing effect | – | –
CC[C@H](C)[C@@H]1NC(=O)[C@H](CC(C)C)NC(=O)[C@H](CC(N)=O)NC(=O)CNC(=O)[C@H](CCCNC(=N)N)NC(=O)[C@H](Cc2c[nH]cn2)NC(=O)[C@H](Cc2ccc(O)cc2)NC(=O)[C@H]([C@@H](C)O)NC(=O)[C@@H](NC(=O)[C@@H](N)CC(=O)O)CSSC[C@@H](C(=O)N[C@H](C(N)=O)[C@@H](C)O)NC(=O)[C@H](Cc2c[nH]c3ccccc23)NC1=O [GFc-C35-3/15 (T7H, N8R, V12I), DCTYHRGNLIWCT] (H-DCTYHRGNLIWCT-NH2; disulfide 2-12) | 4.8 µM | reduced affinity | – | –
CC(C)C[C@@H]1NC(=O)[C@H](CC(N)=O)NC(=O)CNC(=O)[C@H](CCCNC(=N)N)NC(=O)[C@H](Cc2c[nH]cn2)NC(=O)[C@H](Cc2c[nH]c3ccccc23)NC(=O)[C@H]([C@@H](C)O)NC(=O)[C@@H](NC(=O)[C@@H](N)CC(=O)O)CSSC[C@@H](C(=O)N[C@H](C(N)=O)[C@@H](C)O)NC(=O)[C@H](Cc2c[nH]c3ccccc23)NC(=O)[C@H](C(C)C)NC1=O [GFc-C35-3/15 (T7H, N8R, Y6W), DCTWHRGNLVWCT] (H-DCTWHRGNLVWCT-NH2; disulfide 2-12) | 2 µM | reduced affinity | – | –
CC(C)C[C@@H]1NC(=O)[C@H](CC(N)=O)NC(=O)CNC(=O)[C@H](CC(N)=O)NC(=O)[C@H](CCCNC(=N)N)NC(=O)[C@H](Cc2ccc(O)cc2)NC(=O)[C@H]([C@@H](C)O)NC(=O)[C@@H](NC(=O)[C@@H](N)CC(=O)O)CSSC[C@@H](C(=O)N[C@H](C(N)=O)[C@@H](C)O)NC(=O)[C@H](Cc2c[nH]c3ccccc23)NC(=O)[C@H](C(C)C)NC1=O [GFc-C35-3/15 (T7R), DCTYRNGNLVWCT] (H-DCTYRNGNLVWCT-NH2; disulfide 2-12) | 83 µM | – | – | –
CC(C)C[C@@H]1NC(=O)[C@H](CC(N)=O)NC(=O)CNC(=O)[C@H](CC(N)=O)NC(=O)[C@H](CO)NC(=O)[C@H](Cc2ccc(O)cc2)NC(=O)[C@H]([C@@H](C)O)NC(=O)[C@@H](NC(=O)[C@@H](N)CC(=O)O)CSSC[C@@H](C(=O)N[C@H](C(N)=O)[C@@H](C)O)NC(=O)[C@H](Cc2c[nH]c3ccccc23)NC(=O)[C@H](C(C)C)NC1=O [GFc-C35-3/15 (T7S), DCTYSNGNLVWCT] (H-DCTYSNGNLVWCT-NH2; disulfide 2-12) | 26 µM | – | – | –
CC(C)C[C@@H]1NC(=O)[C@H](CC(N)=O)NC(=O)CNC(=O)[C@H](CC(N)=O)NC(=O)[C@H]([C@@H](C)O)NC(=O)[C@H](Cc2ccc(O)cc2)NC(=O)[C@H]([C@@H](C)O)NC(=O)[C@@H](NC(=O)[C@@H](N)CC(=O)O)CSSC[C@@H](C(=O)N[C@@H](CO)C(N)=O)NC(=O)[C@H](Cc2c[nH]c3ccccc23)NC(=O)[C@H](C(C)C)NC1=O [GFc-C35-3/15 (T15S), DCTYTNGNLVWCS] (H-DCTYTNGNLVWCS-NH2; disulfide 2-12) | 34 µM | – | – | –
CC[C@H](C)[C@@H]1NC(=O)[C@H](CC(C)C)NC(=O)[C@H](CC(N)=O)NC(=O)CNC(=O)[C@H](CC(N)=O)NC(=O)[C@H]([C@@H](C)O)NC(=O)[C@H](Cc2ccc(O)cc2)NC(=O)[C@H]([C@@H](C)O)NC(=O)[C@@H](NC(=O)[C@@H](N)CC(=O)O)CSSC[C@@H](C(=O)N[C@H](C(N)=O)[C@@H](C)O)NC(=O)[C@H](Cc2c[nH]c3ccccc23)NC1=O [GFc-C35-3/15 (V12I), DCTYTNGNLIWCT] (H-DCTYTNGNLIWCT-NH2; disulfide 2-12) | 12 µM | – | – | –
CC(C)C[C@@H]1NC(=O)[C@H](CC(N)=O)NC(=O)CNC(=O)[C@H](CC(N)=O)NC(=O)[C@H]([C@@H](C)O)NC(=O)[C@H](Cc2ccccc2)NC(=O)[C@H]([C@@H](C)O)NC(=O)[C@@H](NC(=O)[C@@H](N)CC(=O)O)CSSC[C@@H](C(=O)N[C@H](C(N)=O)[C@@H](C)O)NC(=O)[C@H](Cc2c[nH]c3ccccc23)NC(=O)[C@H](C(C)C)NC1=O [GFc-C35-3/15 (Y6F), DCTFTNGNLVWCT] (H-DCTFTNGNLVWCT-NH2; disulfide 2-12) | 2100 µM | – | greatly reduced affinity | –
CC(C)C[C@@H]1NC(=O)[C@H](CC(N)=O)NC(=O)CNC(=O)[C@H](CC(N)=O)NC(=O)[C@H]([C@@H](C)O)NC(=O)[C@H](Cc2c[nH]c3ccccc23)NC(=O)[C@H]([C@@H](C)O)NC(=O)[C@@H](NC(=O)[C@@H](N)CC(=O)O)CSSC[C@@H](C(=O)N[C@H](C(N)=O)[C@@H](C)O)NC(=O)[C@H](Cc2c[nH]c3ccccc23)NC(=O)[C@H](C(C)C)NC1=O [GFc-C35-3/15 (Y6W), DCTWTNGNLVWCT] (H-DCTWTNGNLVWCT-NH2; disulfide 2-12) | 50 µM | – | increased affinity | –
CC(C)C[C@@H]1NC(=O)[C@H](CC(N)=O)NC(=O)CNC(=O)[C@H](CC(N)=O)NC(=O)[C@H]([C@@H](C)O)NC(=O)[C@H](Cc2ccc(O)cc2)NC(=O)[C@H]([C@@H](C)O)NC(=O)[C@@H](NC(=O)[C@@H](N)CC(=O)O)CSSC[C@@H](C(=O)N[C@H](C(N)=O)[C@@H](C)O)NC(=O)[C@H](Cc2c[nH]c3ccccc23)NC(=O)[C@H](C(C)C)NC1=O [GFc-C35-3/15, DCTYTNGNLVWCT] (H-DCTYTNGNLVWCT-NH2; disulfide 2-12) | 130 µM | – | – | –
CC(C)C[C@@H]1NC(=O)[C@H](CCC(=O)O)NC(=O)CNC(=O)[C@H](CCCNC(=N)N)NC(=O)[C@H](Cc2c[nH]cn2)NC(=O)[C@H](Cc2ccc(O)cc2)NC(=O)[C@H](C)NC(=O)[C@@H](NC(=O)[C@H](CC(=O)O)NC(=O)[C@@H]2CCCN2C(=O)CN)CSSC[C@@H](C(=O)N[C@H](C(=O)N[C@@H](Cc2ccccc2)C(=O)N[C@@H](Cc2c[nH]cn2)C(N)=O)[C@@H](C)O)NC(=O)[C@H](Cc2c[nH]c3ccccc23)NC(=O)[C@H](C(C)C)NC1=O [Peptide C35A, GPDCAYHRGELVWCTFH] (H-GPDCAYHRGELVWCTFH-NH2; disulfide 4-14) | 0.009 µM | – | – | –
CC(C)C[C@@H]1NC(=O)[C@H](CCC(=O)O)NC(=O)CNC(=O)[C@H](CCCNC(=N)N)NC(=O)[C@H](Cc2c[nH]cn2)NC(=O)[C@H](Cc2ccc(O)cc2)NC(=O)[C@H](C)NC(=O)[C@@H](NC(=O)[C@@H](N)CCCNC(=N)N)CSSC[C@@H](C(=O)N[C@@H](CO)C(N)=O)NC(=O)[C@H](Cc2c[nH]c3ccccc23)NC(=O)[C@H](C(C)C)NC1=O [RCAYHRGELVWCS] (H-RCAYHRGELVWCS-NH2; disulfide 2-12) | – | – | – | 0.147 µM
